Measured values as given in ChEMBL document CHEMBL1150446, “Inhibition of human cytomegalovirus protease by benzoxazinones and evidence of antiviral activity in cell culture” (Bioorg Med Chem Lett, 1997).

Experiments:
[1] = In vitro biological half-life was measured in human plasma; assay type: ADME
[2] = biological target: T1, Chymotrypsinogen B (Homo sapiens, UniProt P17538); test: Inhibitory concentration against human chymotrypsin at a concentration of 100 uM
[3] = biological target: T2, Neutrophil elastase (Homo sapiens) (UniProt P08246); test: Percent inhibition against human leukocyte elastase (HLE) at a concentration of 100 microgM
T2 sequence (whole entry): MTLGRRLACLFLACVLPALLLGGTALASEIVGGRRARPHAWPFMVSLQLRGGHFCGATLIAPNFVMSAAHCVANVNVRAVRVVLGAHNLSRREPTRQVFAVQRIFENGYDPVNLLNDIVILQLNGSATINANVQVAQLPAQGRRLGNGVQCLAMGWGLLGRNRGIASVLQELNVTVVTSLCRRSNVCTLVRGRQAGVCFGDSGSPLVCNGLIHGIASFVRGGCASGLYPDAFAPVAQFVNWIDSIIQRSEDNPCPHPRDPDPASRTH

[4] = biological target: T1, Chymotrypsinogen B; test: Inhibitory concentration against human chymotrypsin at a concentration of 10 uM
[5] = biological target: T2, Neutrophil elastase (Homo sapiens); test: Percent inhibition against human leukocyte elastase (HLE) at a concentration of 10 microgM
[6] = biological target: T1, Chymotrypsinogen B; test: Inhibitory concentration against human chymotrypsin
[7] = biological target: T3, Neutrophil elastase (Homo sapiens, UniProt P08246); test: Inhibitory concentration against human leukocyte elastase (HLE)
T3 sequence (P08246 whole entry): T2 sequence (whole entry)

T1 sequence (P17538 34-164 limits assumed, other chains not shown): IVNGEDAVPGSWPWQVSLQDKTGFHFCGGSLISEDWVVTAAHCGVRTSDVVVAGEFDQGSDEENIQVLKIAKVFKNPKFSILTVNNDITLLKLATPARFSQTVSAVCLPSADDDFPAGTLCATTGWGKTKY
T1 sequence (P17538 167-263 limits assumed, other chains not shown): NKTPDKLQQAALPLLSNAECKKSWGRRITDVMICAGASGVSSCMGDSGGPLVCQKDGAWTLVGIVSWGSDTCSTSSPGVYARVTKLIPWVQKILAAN

Row | half-life [1] [min] | inhibition [2] [%] | inhibition [3] [%] | inhibition [4] [%] | inhibition [5] [%] | IC50 [6] [nM] | IC50 [7] [nM] | Structure (SMILES)
1 | 32 | 47 | 36 | – | – | – | – | Cc1c(NC(=O)CN2CCCC2)ccc2nc(N[C@H](C)c3ccccc3)oc(=O)c12
2 | 31 | – | – | 28 | 29 | – | – | Cc1c(NC(=O)c2ccccn2)ccc2nc(N[C@H](C)c3ccccc3)oc(=O)c12
3 | 50 | – | 66 | – | – | 3600 | – | COc1ccc(S(=O)(=O)Nc2ccc3nc(N[C@H](C)c4ccccc4)oc(=O)c3c2C)cc1
4 | 67 | – | – | – | – | 88 | – | Cc1cccc2nc(N[C@H](C)c3ccccc3)oc(=O)c12
5 | 50 | – | – | – | – | 140 | 20 | Cc1cccc2nc(N[C@H](C)c3ccc(Br)cc3)oc(=O)c12
6 | 30 | – | – | – | – | 42000 | – | Cc1c(NC(=O)OC(C)(C)C)ccc2nc(N[C@H](C)c3ccccc3)oc(=O)c12
7 | 70 | – | – | – | – | 180 | 44 | Cc1cccc2nc(N[C@@H](C)c3ccccc3)oc(=O)c12
8 | 32 | – | 67 | – | – | 2600 | – | Cc1c(NC(=O)CN(C)C)ccc2nc(N[C@H](C)c3ccccc3)oc(=O)c12
9 | 127 | – | – | – | – | 65 | 3200 | Cc1c(N(C)C)ccc2nc(N[C@H](C)c3ccccc3)oc(=O)c12
10 | 107 | – | – | – | – | 2000 | 33 | Cc1cccc2nc(NC(C)C)oc(=O)c12
